Test results taken from patent US20210255193A1, “LYSINE REACTIVE PROBES AND USES THEREOF” (The Scripps Research Institute, priority 2017, published 2021).

Experiments:
Assay in all cases: competitive isoTOP-ABPP
Type in all cases: binding
[1] = molecular target: T1, ERO1L ERO1-like protein alpha (Homo sapiens, UniProt Q96HE7); conditions: for R value (DMSO/fragment) for probe 1 labeling: Q96HE7_K413; for R value (DMSO/fragment) for probe 1 labeling / isoTOP-ABPP reactivity ratio at lysine Q96HE7_K413 / isoTOP-ABPP ratio (R) at liganded lysine Q96HE7_K413: 50 uM, in vitro; for R value (DMSO/fragment) for probe 1 labeling / isoTOP-ABPP reactivity ratio at lysine Q96HE7_K413: 231 sol; for isoTOP-ABPP ratio (R) at liganded lysine Q96HE7_K413: sol, 231
T1 construct: isoTOP-ABPP experiments performed in cell lysates (in vitro); endogenous in cells; host or cells: soluble proteome of human cancer cell lines (MDA-MB-231; Ramos and Jurkat also prepared)
T1 sequence (Q96HE7 24-468): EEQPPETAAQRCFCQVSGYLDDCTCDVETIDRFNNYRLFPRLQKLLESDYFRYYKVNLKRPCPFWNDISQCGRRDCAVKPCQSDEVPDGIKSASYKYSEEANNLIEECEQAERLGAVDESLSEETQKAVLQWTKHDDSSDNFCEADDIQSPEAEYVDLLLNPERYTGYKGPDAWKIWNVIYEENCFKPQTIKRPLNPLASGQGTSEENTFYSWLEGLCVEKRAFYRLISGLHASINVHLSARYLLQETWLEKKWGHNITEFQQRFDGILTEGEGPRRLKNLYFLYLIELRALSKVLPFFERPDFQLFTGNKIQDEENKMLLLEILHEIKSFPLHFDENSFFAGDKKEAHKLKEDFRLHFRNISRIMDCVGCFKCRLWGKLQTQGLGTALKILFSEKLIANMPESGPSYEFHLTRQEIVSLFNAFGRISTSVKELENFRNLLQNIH
Method in brief: (§1)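 Competition format: fragment (50 μM activated ester, 100 μM guanidinylating agent) versus vehicle in lysate, then lysine probe STP-alkyne at 0.1 mM for 1 h. Quantitation by light/heavy TEV-tag MS1 peak areas, reported as R.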

[2] = molecular target: T2, NLN Neurolysin, mitochondrial (Homo sapiens, UniProt Q9BYT8); conditions: for R value (DMSO/fragment) for probe 1 labeling: Q9BYT8_K253; for R value (DMSO/fragment) for probe 1 labeling / isoTOP-ABPP reactivity ratio at lysine Q9BYT8_K253 / isoTOP-ABPP ratio (R) at liganded lysine Q9BYT8_K253: 50 uM, in vitro; for R value (DMSO/fragment) for probe 1 labeling / isoTOP-ABPP reactivity ratio at lysine Q9BYT8_K253: 231 sol; for isoTOP-ABPP ratio (R) at liganded lysine Q9BYT8_K253: sol, 231
T2 construct: isoTOP-ABPP experiments performed in cell lysates (in vitro); endogenous in cells; host or cells: soluble proteome of human cancer cell lines (MDA-MB-231; Ramos and Jurkat also prepared)
Method in brief: as §1

[3] = molecular target: T3, LDHB L-lactate dehydrogenase B chain (Homo sapiens, UniProt P07195); conditions: for R value (DMSO/fragment) for probe 1 labeling / isoTOP-ABPP reactivity ratio at lysine P07195_K82 / isoTOP-ABPP reactivity ratio at lysine P07195_K244 / isoTOP-ABPP ratio (R) at liganded lysine P07195_K244 / isoTOP-ABPP ratio (R) at liganded lysine P07195_K82: 50 uM, in vitro; for R value (DMSO/fragment) for probe 1 labeling / isoTOP-ABPP reactivity ratio at lysine P07195_K82 / isoTOP-ABPP reactivity ratio at lysine P07195_K244: 231 sol; for isoTOP-ABPP ratio (R) at liganded lysine P07195_K244 / isoTOP-ABPP ratio (R) at liganded lysine P07195_K82: sol, 231
T3 construct: isoTOP-ABPP experiments performed in cell lysates (in vitro); endogenous in cells; host or cells: MDA-MB-231 soluble lysate
Method in brief: as §1

[4] = molecular target: T4, SMPD1 Sphingomyelin phosphodiesterase (Homo sapiens, UniProt P17405); conditions: for isoTOP-ABPP ratio (R) at liganded lysine P17405_K118: sol, 231
T4 construct: isoTOP-ABPP experiments performed in cell lysates (in vitro); endogenous in cells; host or cells: soluble proteome of human cancer cell lines (MDA-MB-231; Ramos and Jurkat also prepared)
T4 sequence (P17405 47-631): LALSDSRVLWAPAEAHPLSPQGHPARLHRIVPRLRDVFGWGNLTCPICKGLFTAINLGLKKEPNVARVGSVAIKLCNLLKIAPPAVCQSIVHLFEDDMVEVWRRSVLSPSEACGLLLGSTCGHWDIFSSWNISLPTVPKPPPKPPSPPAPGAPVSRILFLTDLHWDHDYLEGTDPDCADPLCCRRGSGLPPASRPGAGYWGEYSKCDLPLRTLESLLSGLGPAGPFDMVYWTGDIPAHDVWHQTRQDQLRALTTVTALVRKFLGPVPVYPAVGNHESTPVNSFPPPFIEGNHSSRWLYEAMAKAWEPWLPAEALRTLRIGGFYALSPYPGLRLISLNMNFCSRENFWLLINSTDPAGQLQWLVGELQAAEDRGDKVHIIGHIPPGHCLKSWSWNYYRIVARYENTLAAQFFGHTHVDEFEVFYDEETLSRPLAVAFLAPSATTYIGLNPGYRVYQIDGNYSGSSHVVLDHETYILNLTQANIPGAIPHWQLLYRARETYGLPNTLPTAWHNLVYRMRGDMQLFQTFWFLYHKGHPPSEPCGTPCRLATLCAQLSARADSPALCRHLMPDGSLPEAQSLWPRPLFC
Method in brief: as §1

T3 sequence (P07195 whole entry, the tested form may be a part): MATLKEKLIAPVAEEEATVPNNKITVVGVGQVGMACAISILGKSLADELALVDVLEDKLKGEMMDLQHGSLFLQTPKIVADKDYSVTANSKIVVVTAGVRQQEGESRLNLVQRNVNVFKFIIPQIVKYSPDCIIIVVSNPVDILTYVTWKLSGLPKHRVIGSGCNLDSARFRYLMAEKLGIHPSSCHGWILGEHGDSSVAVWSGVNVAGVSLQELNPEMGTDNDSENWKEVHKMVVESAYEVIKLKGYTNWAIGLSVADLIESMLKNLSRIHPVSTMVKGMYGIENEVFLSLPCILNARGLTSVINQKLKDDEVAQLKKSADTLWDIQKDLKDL
T2 sequence (Q9BYT8 38-704): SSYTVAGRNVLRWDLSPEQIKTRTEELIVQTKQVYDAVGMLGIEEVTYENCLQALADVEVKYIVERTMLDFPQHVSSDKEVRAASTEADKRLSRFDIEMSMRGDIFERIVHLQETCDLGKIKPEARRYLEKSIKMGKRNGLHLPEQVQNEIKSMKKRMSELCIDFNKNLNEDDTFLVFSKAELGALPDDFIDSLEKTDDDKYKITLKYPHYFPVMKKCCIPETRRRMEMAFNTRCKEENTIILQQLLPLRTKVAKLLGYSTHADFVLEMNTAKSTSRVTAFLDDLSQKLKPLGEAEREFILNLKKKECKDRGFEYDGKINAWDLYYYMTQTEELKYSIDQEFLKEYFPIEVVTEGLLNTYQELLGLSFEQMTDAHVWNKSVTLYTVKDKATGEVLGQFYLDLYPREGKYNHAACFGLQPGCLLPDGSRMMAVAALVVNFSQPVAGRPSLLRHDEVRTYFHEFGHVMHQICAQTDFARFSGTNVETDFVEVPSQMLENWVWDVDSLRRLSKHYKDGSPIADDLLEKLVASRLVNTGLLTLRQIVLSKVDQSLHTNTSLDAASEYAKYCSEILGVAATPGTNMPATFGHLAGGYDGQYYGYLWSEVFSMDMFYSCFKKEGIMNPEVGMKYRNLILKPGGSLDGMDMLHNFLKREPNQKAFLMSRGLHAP

## O=C(CCc1cn(-c2ccccc2)nc1-c1ccccc1)Oc1c(F)c(F)c(F)c(F)c1F [fragment 19, Pentafluorophenyl 3-(1,3-diphenyl-1H-pyrazol-4-yl)propanoate]
[1]
  R value (DMSO/fragment) for probe 1 labeling: 0.5
[2]
  R value (DMSO/fragment) for probe 1 labeling: 1.0

## O=C(Oc1c(F)c(F)c(F)c(F)c1F)c1cc(C(F)(F)F)cc(C(F)(F)F)c1 [fragment 21, Pentafluorophenyl 3,5-bis(trifluoromethyl)benzoate]
[1]
  R value (DMSO/fragment) for probe 1 labeling: 1.4
[3]; P07195_K244
  R value (DMSO/fragment) for probe 1 labeling: 1.0
[2]
  R value (DMSO/fragment) for probe 1 labeling: 0.7

## Cn1cc(CC(=O)Oc2c(F)c(F)c(F)c(F)c2F)c2ccccc21 [fragment 22, Pentafluorophenyl 2-(1-methyl-1H-indol-3-yl)acetate]
[3]; P07195_K82
  R value (DMSO/fragment) for probe 1 labeling: 0.8
[3]; P07195_K244
  R value (DMSO/fragment) for probe 1 labeling: 1.0
[2]
  R value (DMSO/fragment) for probe 1 labeling: 1.5

## O=C(Oc1c(F)c(F)c(F)c(F)c1F)c1ccc2ccccc2n1 [fragment 25, Pentafluorophenyl quinoline-2-carboxylate]
[2]
  isoTOP-ABPP reactivity ratio at lysine Q9BYT8_K253: 0.9

## O=C(CCc1coc2cc(F)ccc2c1=O)Oc1c(F)c(F)c(F)c(F)c1F [fragment 26, Pentafluorophenyl 3-(7-fluoro-4-oxo-4H-chromen-3-yl)propanoate]
[3]
  isoTOP-ABPP reactivity ratio at lysine P07195_K82: 0.7
[2]
  isoTOP-ABPP reactivity ratio at lysine Q9BYT8_K253: 1.2

## CCn1cc(C(=O)Oc2c(F)c(F)c(F)c(F)c2F)c(=O)c2ccc(C)nc21 [fragment 28, Pentafluorophenyl 1-ethyl-7-methyl-4-oxo-1,4-dihydro-1,8-naphthyridine-3-carboxylate]
[1]
  isoTOP-ABPP reactivity ratio at lysine Q96HE7_K413: 1.4

## O=C(CCc1cn(-c2ccccc2)nc1-c1ccccc1)Oc1ccc([N+](=O)[O-])cc1[N+](=O)[O-] [fragment 29, 2,4-Dinitrophenyl 3-(1,3-diphenyl-1H-pyrazol-4-yl)propanoate]
[1]
  isoTOP-ABPP reactivity ratio at lysine Q96HE7_K413: 20.0
[2]
  isoTOP-ABPP reactivity ratio at lysine Q9BYT8_K253: 1.0
[4]; 50 uM, 231 sol, in vitro
  isoTOP-ABPP reactivity ratio at lysine P17405_K118: 2.5

## O=C(Oc1ccc([N+](=O)[O-])cc1[N+](=O)[O-])C(c1ccccc1)c1ccccc1 [fragment 30, 2,4-Dinitrophenyl 2,2-diphenylacetate]
[1]
  isoTOP-ABPP reactivity ratio at lysine Q96HE7_K413: 1.2
[3]
  isoTOP-ABPP reactivity ratio at lysine P07195_K82: 20.0
  isoTOP-ABPP reactivity ratio at lysine P07195_K244: 1.2
[2]
  isoTOP-ABPP reactivity ratio at lysine Q9BYT8_K253: 1.3

## O=C(Oc1ccc([N+](=O)[O-])cc1[N+](=O)[O-])c1cc(C(F)(F)F)cc(C(F)(F)F)c1 [fragment 31, 2,4-Dinitrophenyl 3,5-bis(trifluoromethyl)benzoate]
[2]
  isoTOP-ABPP reactivity ratio at lysine Q9BYT8_K253: 1.5

## Cn1cc(CC(=O)Oc2ccc([N+](=O)[O-])cc2[N+](=O)[O-])c2ccccc21 [fragment 32, 2,4-Dinitrophenyl 2-(1-methyl-1H-indol-3-yl)acetate]
[1]
  isoTOP-ABPP reactivity ratio at lysine Q96HE7_K413: 20.0
[3]
  isoTOP-ABPP reactivity ratio at lysine P07195_K82: 0.8
  isoTOP-ABPP reactivity ratio at lysine P07195_K244: 1.0
[2]
  isoTOP-ABPP reactivity ratio at lysine Q9BYT8_K253: 1.7

## COc1cc(CCC(=O)Oc2ccc([N+](=O)[O-])cc2[N+](=O)[O-])cc(OC)c1OC [fragment 33, 2,4-Dinitrophenyl 3-(3,4,5-trimethoxyphenyl)propanoate]
[2]
  isoTOP-ABPP reactivity ratio at lysine Q9BYT8_K253: 4.1

## O=C(Oc1ccc([N+](=O)[O-])cc1[N+](=O)[O-])C1CCN(C(=O)OCc2ccccc2)CC1 [fragment 34, 1-Benzyl 4-(2,4-dinitrophenyl) piperidine-1,4-dicarboxylate]
[3]
  isoTOP-ABPP ratio (R) at liganded lysine P07195_K244: 1.0

## O=C(CCc1coc2cc(F)ccc2c1=O)Oc1ccc([N+](=O)[O-])cc1[N+](=O)[O-] [fragment 36, 2,4-Dinitrophenyl 3-(7-fluoro-4-oxo-4H-chromen-3-yl)propanoate]
[3]
  isoTOP-ABPP ratio (R) at liganded lysine P07195_K82: 0.9
  isoTOP-ABPP ratio (R) at liganded lysine P07195_K244: 20.0

## O=C(Oc1ccc([N+](=O)[O-])cc1[N+](=O)[O-])c1ccc(-c2ccccc2)cc1 [fragment 37, 2,4-Dinitrophenyl [1,1′-biphenyl]-4-carboxylate]
[1]
  isoTOP-ABPP ratio (R) at liganded lysine Q96HE7_K413: 2.4
[3]
  isoTOP-ABPP ratio (R) at liganded lysine P07195_K82: 0.8
  isoTOP-ABPP ratio (R) at liganded lysine P07195_K244: 0.8
[2]
  isoTOP-ABPP ratio (R) at liganded lysine Q9BYT8_K253: 0.9

## O=C(CC12CC3CC(CC(C3)C1)C2)Oc1ccc([N+](=O)[O-])cc1[N+](=O)[O-] [fragment 38, 2,4-Dinitrophenyl 2-(adamantan-1-yl)acetate]
[3]
  isoTOP-ABPP ratio (R) at liganded lysine P07195_K82: 0.7
[2]
  isoTOP-ABPP ratio (R) at liganded lysine Q9BYT8_K253: 0.8
[4]; 50 uM, in vitro
  isoTOP-ABPP ratio (R) at liganded lysine P17405_K118: 1.2

## O=C(Oc1ccc([N+](=O)[O-])cc1[N+](=O)[O-])c1ccc(Oc2ccccc2)cc1 [fragment 39, 2,4-Dinitrophenyl 4-phenoxybenzoate]
[3]
  isoTOP-ABPP ratio (R) at liganded lysine P07195_K82: 20.0
  isoTOP-ABPP ratio (R) at liganded lysine P07195_K244: 1.0
[2]
  isoTOP-ABPP ratio (R) at liganded lysine Q9BYT8_K253: 1.1
[4]; 50 uM, in vitro
  isoTOP-ABPP ratio (R) at liganded lysine P17405_K118: 0.8

## O=C(Oc1ccc([N+](=O)[O-])cc1[N+](=O)[O-])c1ccccc1Nc1cccc(C(F)(F)F)c1 [fragment 40, 2,4-Dinitrophenyl 2-((3-(trifluoromethyl)phenyl)amino)benzoate]
[3]
  isoTOP-ABPP ratio (R) at liganded lysine P07195_K82: 20.0
[2]
  isoTOP-ABPP ratio (R) at liganded lysine Q9BYT8_K253: 0.9

## O=C(Oc1ccc([N+](=O)[O-])cc1[N+](=O)[O-])C(c1ccccc1)(c1ccccc1)c1ccccc1 [fragment 42, 2,4-Dinitrophenyl 2,2,2-triphenylacetate]
[3]
  isoTOP-ABPP ratio (R) at liganded lysine P07195_K82: 20.0
[2]
  isoTOP-ABPP ratio (R) at liganded lysine Q9BYT8_K253: 0.8

## CC(=O)Oc1ccc([N+](=O)[O-])cc1[N+](=O)[O-] [fragment 43, 2,4-Dinitrophenyl acetate]
[1]
  isoTOP-ABPP ratio (R) at liganded lysine Q96HE7_K413: 2.0
[2]
  isoTOP-ABPP ratio (R) at liganded lysine Q9BYT8_K253: 0.8

## N#Cc1ccc(C(=O)Oc2ccc([N+](=O)[O-])cc2[N+](=O)[O-])cc1 [fragment 44, 2,4-Dinitrophenyl 4-cyanobenzoate]
[1]; 50 uM_231_sol_in vitro, possible other lysine Q86YB8_K412
  isoTOP-ABPP ratio, lysine Q96HE7_K413: 1.9
[3]; 50 uM_231_sol_in vitro
  isoTOP-ABPP ratio, lysine P07195_K82: 1.0
  isoTOP-ABPP ratio, lysine P07195_K244: 1.1
[4]; 50 uM_231_sol_in vitro
  isoTOP-ABPP ratio, lysine P17405_K118: 0.8

## O=C(CCc1ccc2c(c1)OCO2)Oc1ccc([N+](=O)[O-])cc1[N+](=O)[O-] [fragment 45, 2,4-Dinitrophenyl 3-(benzo[d][1,3]dioxol-5-yl)propanoate]
[2]; 50 uM_231_sol_in vitro
  isoTOP-ABPP ratio, lysine Q9BYT8_K253: 1.3
[4]; 50 uM_231_sol_in vitro
  isoTOP-ABPP ratio, lysine P17405_K118: 1.1

## O=C(Oc1c(F)c(F)c(C(F)(F)F)c(F)c1F)c1cc(C(F)(F)F)cc(C(F)(F)F)c1 [fragment 47, 2,3,5,6-Tetrafluoro-4-(trifluoromethyl)phenyl 3,5-bis(trifluoromethyl)benzoate]
[3]; 50 uM_231_sol_in vitro
  isoTOP-ABPP ratio, lysine P07195_K244: 1.0

## COC(=O)NC(=NC(=O)OCC1c2ccccc2-c2ccccc21)n1cccn1 [fragment 49, N-Methoxycarbonyl-N′-9-fluorenylmethoxycarbonyl-pyrazole-1-carboxamidine]
[4]; 100 uM_231_sol_in vitro
  isoTOP-ABPP ratio, lysine P17405_K118: 8.4

## NC(=O)c1cc(C(F)(F)F)cc(C(F)(F)F)c1 [fragment 51, reference compound]
[4]; 50 uM_231_sol_in vitro
  isoTOP-ABPP ratio, lysine P17405_K118: 0.9
